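Grown in 96-well plates, cells were treated for 48 hours with each compound at five concentrations. Insufficient inhibition: endpoint recorded as highest concentration tested. Abbreviation: GI50, concentration required for 50% inhibition of growth.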 Activity calls are given as the source filed them. Cut-off read from the data, not from the text of the source: active = GI50 up to about 1.1 µM and inactive = higher.
Assays:
Experiment in all cases: NCI anticancer screen, dose series, 48 h
OVCAR-4 = tested on: OVCAR-4
KM12 = tested on: KM12
EKVX = tested on: EKVX
SW-620 = tested on: SW-620
SF-268 = tested on: SF-268
CCRF-CEM = tested on: CCRF-CEM
UACC-257 = tested on: UACC-257
NCI-H460 = tested on: NCI-H460
SR = tested on: SR
ACHN = tested on: ACHN
K562 = tested on: K562
HCT-116 = tested on: HCT-116
SNB-78 = tested on: SNB-78
SNB-19 = tested on: SNB-19
OVCAR-5 = tested on: OVCAR-5
786-0 = tested on: 786-0
M19-MEL = tested on: M19-MEL
HOP-92 = tested on: HOP-92
HCT-15 = tested on: HCT-15
SNB-75 = tested on: SNB-75
DMS-114 = tested on: DMS-114
SF-539 = tested on: SF-539
LOX IMVI = tested on: LOX IMVI
SN12C = tested on: SN12C
Malme-3M = tested on: Malme-3M
A549 = tested on: A549
HOP-62 = tested on: HOP-62
KM-20L2 = tested on: KM-20L2
NCI-H23 = tested on: NCI-H23
TK-10 = tested on: TK-10
DMS-273 = tested on: DMS-273
XF498 = tested on: XF498
SK-MEL-5 = tested on: SK-MEL-5
U-251 = tested on: U-251
HOP-18 = tested on: HOP-18
UACC-62 = tested on: UACC-62
RXF 393 = tested on: RXF 393
SK-MEL-28 = tested on: SK-MEL-28
DLD-1 = tested on: DLD-1
OVCAR-8 = tested on: OVCAR-8
OVCAR-3 = tested on: OVCAR-3
COLO 205 = tested on: COLO 205
A498 = tested on: A498
SK-MEL-2 = tested on: SK-MEL-2
CAKI-1 = tested on: CAKI-1
HT-29 = tested on: HT-29
SF-295 = tested on: SF-295
IGROV-1 = tested on: IGROV-1
LXFL 529 = tested on: LXFL 529
RPMI-8226 = tested on: RPMI-8226
NCI-H226 = tested on: NCI-H226
NCI-H522 = tested on: NCI-H522
M14 = tested on: M14
HCC 2998 = tested on: HCC 2998
MOLT-4 = tested on: MOLT-4
UO-31 = tested on: UO-31
SK-OV-3 = tested on: SK-OV-3
HL-60 = tested on: HL-60

`CC(C)(C)/N=C\N(C=C(c1ccccc1)c1ccccc1)C1CCCCC1` was tested, and the GI50 (OVCAR-4) was 39.4 µM (inactive), the GI50 (KM12) was 36.2 µM (inactive) and the GI50 (EKVX) was 93.1 µM (inactive). The GI50 (SW-620) was 36.3 µM (inactive), the GI50 (SF-268) was 41.1 µM (inactive) and the GI50 (CCRF-CEM) was 34.8 µM (inactive). For the same compound, the GI50 (UACC-257) was 33.3 µM (inactive), the GI50 (NCI-H460) was 38.2 µM (inactive) and the GI50 (SR) was 18 µM (inactive). The GI50 (ACHN) was 36.4 µM (inactive), the GI50 (K562) was 17.7 µM (inactive) and the GI50 (HCT-116) was 23.4 µM (inactive). For the same compound, the GI50 (SNB-78) was 69 µM (inactive), the GI50 (SNB-19) was > 100 µM (inactive) and the GI50 (OVCAR-5) was 35.1 µM (inactive). The GI50 (786-0) was 82.4 µM (inactive), the GI50 (M19-MEL) was 44.2 µM (inactive) and the GI50 (HOP-92) was 17.9 µM (inactive). For the same compound, the GI50 (HCT-15) was 28.5 µM, the GI50 (SNB-75) was 33.7 µM (inactive) and the GI50 (DMS-114) was 19.2 µM (inactive). For the same compound, the GI50 (SF-539) was 50.5 µM (inactive), the GI50 (LOX IMVI) was 25.2 µM (inactive) and the GI50 (SN12C) was 43.4 µM (inactive). For the same compound, the GI50 (Malme-3M) was 17.1 µM (inactive), the GI50 (A549) was 81.3 µM (inactive) and the GI50 (HOP-62) was > 100 µM (inactive). For the same compound, the GI50 (KM-20L2) was 16.9 µM (inactive), the GI50 (NCI-H23) was 40.3 µM (inactive) and the GI50 (TK-10) was 78.3 µM (inactive). For the same compound, the GI50 (DMS-273) was 46.6 µM (inactive), the GI50 (XF498) was 16.6 µM (inactive) and the GI50 (SK-MEL-5) was 16.5 µM (inactive). For the same compound, the GI50 (U-251) was 32.1 µM (inactive), the GI50 (HOP-18) was 52.2 µM (inactive) and the GI50 (UACC-62) was 44.1 µM (inactive). The GI50 (RXF 393) was 19.4 µM (inactive), the GI50 (SK-MEL-28) was 35 µM (inactive) and the GI50 (DLD-1) was 23.1 µM (inactive). For the same compound, the GI50 (OVCAR-8) was 91.8 µM (inactive), the GI50 (OVCAR-3) was 29.8 µM (inactive) and the GI50 (COLO 205) was 22.7 µM (inactive). For the same compound, the GI50 (A498) was 23.3 µM (inactive), the GI50 (SK-MEL-2) was 60.8 µM (inactive) and the GI50 (CAKI-1) was 50.6 µM (inactive). For the same compound, the GI50 (HT-29) was 25.9 µM (inactive), the GI50 (SF-295) was 32 µM (inactive) and the GI50 (IGROV-1) was 50.9 µM (inactive).
`CC(C)(C)c1cc(C(O)(C(F)(F)F)C(F)(F)F)c2c(c1)C(C(F)(F)F)(C(F)(F)F)OC(C)(C(C)(C)C)N2` (stereo not drawn) was tested, and the GI50 (OVCAR-4) was 4.62 µM (inactive), the GI50 (KM12) was 3.94 µM (inactive) and the GI50 (EKVX) was 3.94 µM (inactive). The GI50 (SW-620) was 3.68 µM (inactive), the GI50 (LXFL 529) was 2.96 µM (inactive) and the GI50 (UACC-257) was 5.19 µM (inactive). The GI50 (NCI-H460) was 2.48 µM (inactive), the GI50 (RPMI-8226) was 2.57 µM (inactive) and the GI50 (SR) was 2.82 µM (inactive). The GI50 (ACHN) was 3.06 µM (inactive), the GI50 (NCI-H226) was 2.27 µM (inactive) and the GI50 (NCI-H522) was 1.82 µM (inactive). For the same compound, the GI50 (K562) was 2.9 µM (inactive), the GI50 (HCT-116) was 3.42 µM (inactive) and the GI50 (SNB-78) was 5.87 µM (inactive). The GI50 (SNB-19) was 5.41 µM (inactive), the GI50 (OVCAR-5) was 7.13 µM (inactive) and the GI50 (786-0) was 3.34 µM (inactive). The GI50 (M14) was 0.653 µM (active), the GI50 (M19-MEL) was 3.05 µM (inactive) and the GI50 (HOP-92) was < 0.01 µM (active). The GI50 (HCT-15) was 3.83 µM, the GI50 (HCC 2998) was 6.56 µM (inactive) and the GI50 (SNB-75) was 2 µM (inactive). For the same compound, the GI50 (DMS-114) was 2.74 µM (inactive), the GI50 (SF-539) was 3.55 µM (inactive) and the GI50 (SN12C) was 4.45 µM (inactive). For the same compound, the GI50 (Malme-3M) was 6.65 µM (inactive), the GI50 (A549) was 3.59 µM (inactive) and the GI50 (KM-20L2) was 3.03 µM (inactive). For the same compound, the GI50 (NCI-H23) was 2 µM (inactive), the GI50 (TK-10) was 3.27 µM (inactive) and the GI50 (DMS-273) was 3.06 µM (inactive). The GI50 (XF498) was 1.63 µM (inactive), the GI50 (SK-MEL-5) was 2.01 µM (inactive) and the GI50 (U-251) was 2.69 µM (inactive). For the same compound, the GI50 (HOP-18) was 2.76 µM (inactive), the GI50 (UACC-62) was 3.58 µM (inactive) and the GI50 (RXF 393) was 4.43 µM (inactive). For the same compound, the GI50 (MOLT-4) was 2.54 µM (inactive), the GI50 (SK-MEL-28) was 8.28 µM (inactive) and the GI50 (DLD-1) was 2.85 µM (inactive). The GI50 (OVCAR-8) was 4.9 µM (inactive), the GI50 (OVCAR-3) was 0.776 µM (active) and the GI50 (COLO 205) was 2.05 µM (inactive). The GI50 (SK-MEL-2) was 4.72 µM (inactive), the GI50 (UO-31) was 2.97 µM (inactive) and the GI50 (CAKI-1) was 3.04 µM (inactive). The GI50 (HT-29) was 3.4 µM (inactive), the GI50 (SF-295) was 4.73 µM (inactive) and the GI50 (SK-OV-3) was 2.25 µM (inactive). For the same compound, the GI50 (IGROV-1) was 4.78 µM (inactive).
`COc1ccc(CNc2cnc3ccc(N)cc3n2)cc1` was tested, and the GI50 (OVCAR-4) was > 100 µM (inactive), the GI50 (KM12) was > 100 µM (inactive) and the GI50 (EKVX) was > 100 µM (inactive). The GI50 (SW-620) was > 100 µM (inactive), the GI50 (SF-268) was > 100 µM (inactive) and the GI50 (CCRF-CEM) was 49.2 µM (inactive). The GI50 (UACC-257) was > 100 µM (inactive), the GI50 (NCI-H460) was > 100 µM (inactive) and the GI50 (RPMI-8226) was 81.8 µM (inactive). The GI50 (ACHN) was > 100 µM (inactive), the GI50 (NCI-H226) was > 100 µM (inactive) and the GI50 (HL-60) was > 100 µM (inactive). For the same compound, the GI50 (NCI-H522) was > 100 µM (inactive), the GI50 (K562) was > 100 µM (inactive) and the GI50 (HCT-116) was 0.0622 µM (active). The GI50 (SNB-78) was 82.8 µM (inactive), the GI50 (SNB-19) was > 100 µM (inactive) and the GI50 (OVCAR-5) was > 100 µM (inactive). The GI50 (786-0) was > 100 µM (inactive), the GI50 (M14) was > 100 µM (inactive) and the GI50 (M19-MEL) was 0.243 µM (active). For the same compound, the GI50 (HCT-15) was > 100 µM, the GI50 (HCC 2998) was > 100 µM (inactive) and the GI50 (SNB-75) was 64.6 µM (inactive). The GI50 (DMS-114) was 2.09 µM (inactive), the GI50 (SF-539) was > 100 µM (inactive) and the GI50 (LOX IMVI) was > 100 µM (inactive). For the same compound, the GI50 (SN12C) was > 100 µM (inactive), the GI50 (Malme-3M) was > 100 µM (inactive) and the GI50 (A549) was > 100 µM (inactive). For the same compound, the GI50 (HOP-62) was > 100 µM (inactive), the GI50 (NCI-H23) was > 100 µM (inactive) and the GI50 (TK-10) was > 100 µM (inactive). For the same compound, the GI50 (DMS-273) was 0.0531 µM (active), the GI50 (XF498) was > 100 µM (inactive) and the GI50 (SK-MEL-5) was 35.3 µM (inactive). For the same compound, the GI50 (HOP-18) was > 100 µM (inactive), the GI50 (MOLT-4) was 24.7 µM (inactive) and the GI50 (SK-MEL-28) was 3.84 µM (inactive). For the same compound, the GI50 (DLD-1) was > 100 µM (inactive), the GI50 (OVCAR-8) was > 100 µM (inactive) and the GI50 (OVCAR-3) was > 100 µM (inactive). For the same compound, the GI50 (COLO 205) was 0.064 µM (active), the GI50 (SK-MEL-2) was > 100 µM (inactive) and the GI50 (UO-31) was > 100 µM (inactive). The GI50 (CAKI-1) was > 100 µM (inactive), the GI50 (HT-29) was > 100 µM (inactive) and the GI50 (SF-295) was > 100 µM (inactive).

Source: ChEMBL document CHEMBL1201862, “PubChem BioAssay data set” (2004)
